Source: US11065253B2, “Arylquinazolines” (Merck Patent GmbH, priority 2013, dated 2021)

These molecules were tested on phospho-serine 2056 DNA-PK in HCT116 cells (assay: DNA-PK phosphorylation at serine 2056 (cellular), ELISA in bleomycin-treated HCT116 cells). Conditions: Homo sapiens, HCT-116, 6 h, cellular; HCT116 cells, 10 μM bleomycin, six hours; read-out: IC50 pDNA-PK.
Assay type: cell-based
In short: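 Chemiluminescent ELISA quantified DNA-PK Ser2056 phosphorylation relative to total DNA-PKcs in HCT116 cells. Cells received compounds together with 10 μM bleomycin for 6 h; DMSO served as blank.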

First: OC(c1ccc(F)c(-c2ncnc3cc(N4CCOCC4)ccc23)c1)c1cnccn1 (stereo not shown) [Example 33, [4-Fluoro-3-(7-morpholin-4-yl-quinazolin-4-yl)phenyl]-pyrazin-2-ylmethanol]
Second: O[C@@H](c1ccc(F)c(-c2ncnc3cc(N4CCOCC4)ccc23)c1)c1nccnc1Cl [Example 28, (S)-(3-Chloro-pyrazin-2-yl)-[4-fluoro-3-(7-morpholin-4-yl-quinazolin-4-yl)phenyl]-methanol]
The IC50 of the first is higher: 10 to 30 µM for the first, 5 to 10 µM for the second.

Compared with `Cc1cnnc(C(O)c2cc(-c3ncnc4cc(N5CCOCC5)ccc34)c(F)cc2Cl)c1` (stereo not shown) [Example 46, [2-Chloro-4-fluoro-5-(7-morpholin-4-yl-quinazolin-4-yl)phenyl]-(5-methylpyridazin-3-yl)methanol], `OC(c1ccc(Cl)nn1)c1cc(-c2ncnc3cc(N4CCOCC4)ccc23)c(F)cc1Cl` (stereo not shown) [Example 41, [2-Chloro-4-fluoro-5-(7-morpholin-4-yl-quinazolin-4-yl)phenyl]-(6-chloro-pyridazin-3-yl)methanol] is lower in IC50: 5 to 10 µM for the first, under 0.5 µM for the second. The second is the more potent here.

`OC(c1ccc(F)c(-c2ncnc3cc(N4CCOCC4)ccc23)c1)c1ncccc1Cl` (stereo not shown) [Example 42, (3-Chloro-pyridin-2-yl)-[4-fluoro-3-(7-morpholin-4-yl-quinazolin-4-yl)phenyl]-methanol] and `Cc1nccnc1[C@H](O)c1ccc(F)c(-c2ncnc3cc(N4CCOCC4)ccc23)c1` [Example 83, (R)-[4-Fluoro-3-(7-morpholin-4-yl-quinazolin-4-yl)-phenyl]-(3-methyl-pyrazin-2-yl)methanol] cannot be ordered by IC50: under 0.5 µM for the first, under 0.5 µM for the second.

First: OC(c1ccc(F)c(-c2ncnc3cc(N4CCOCC4)ccc23)c1)c1nccnc1N1CCCC1 (stereo not shown) [Example 14, [4-Fluoro-3-(7-morpholin-4-yl-quinazolin-4-yl)phenyl]-(3-pyrrolidin-1-yl-pyrazin-2-yl)methanol]
Second: OC(c1ccnnc1)c1cc(-c2ncnc3cc(N4CCOCC4)ccc23)c(F)cc1Cl (stereo not shown) [Example 36, [2-Chloro-4-fluoro-5-(7-morpholin-4-yl-quinazolin-4-yl)phenyl]-pyridazin-4-ylmethanol]
The IC50 of the first is higher: 0.5 to 5 µM for the first, under 0.5 µM for the second. The second is the more potent here.

Same assay, conditions: Homo sapiens, HCT-116, cellular DNA-PK phosphorylation at serine 2056, HCT116 cells; read-out: IC50 pDNA-PK

First: O=c1ccc(C(O)c2ccc(F)c(-c3ncnc4cc(N5CCOCC5)ccc34)c2)n[nH]1 (stereo not shown) [Example 367, 6-{[4-Fluoro-3-(7-morpholin-4-yl-quinazolin-4-yl)phenyl]-hydroxymethyl}-2H-pyridazin-3-one]
Second: OC(c1ccc(F)c(-c2ncnc3cc(N4CCOCC4)ccc23)c1)c1ncnc2ccsc12 (stereo not shown) [Example 438, [4-Fluoro-3-(7-morpholin-4-yl-quinazolin-4-yl)-phenyl]thieno[3,2-d}-pyrimidin-4-yl-methanol]
The IC50 of the first is higher: 0.5 to 5 µM for the first, under 0.5 µM for the second.

Compared with `Cn1c(C(O)c2cc(-c3ncnc4cc(N5CCOCC5)ccc34)c(F)cc2Cl)nccc1=O` (stereo not shown) [Example 368, 2-{[2-Chloro-4-fluoro-5-(7-morpholin-4-yl-quinazolin-4-yl)-phenyl]hydroxy-methyl}-3-methyl-3H-pyrimidin-4-one], `Cn1c(C(O)c2cc(-c3ncnc4cc(N5CCOCC5)ccc34)c(F)cc2F)cccc1=O` (stereo not shown) [Example 380, 6-{[2,4-Difluoro-5-(7-morpholin-4-yl-quinazolin-4-yl)-phenyl]hydroxy-methyl}-1-methyl-1H-pyridin-2-one (Ena 2)] is lower in IC50: 5 to 10 µM for the first, 0.5 to 5 µM for the second. The second is the more potent here.

First: Cn1cnc2c(C(O)c3cc(-c4ncnc5cc(N6CCOCC6)ccc45)ccc3F)ncnc21 (stereo not shown) [Example 370, [2-Fluoro-5-(7-morpholin-4-yl-quinazolin-4-yl)-phenyl]-(9-methyl-9H-purin-6-yl)-methanol]
Second: OC(c1cc(-c2ncnc3cc(N4CCOCC4)ccc23)ccc1F)c1ncnc2sccc12 (stereo not shown) [Example 406, [2-Fluoro-5-(7-morpholin-4-yl-quinazolin-4-yl)-phenyl]thieno[2,3-d}-pyrimidin-4-yl-methanol]
The IC50 of the first is higher: 0.5 to 5 µM for the first, under 0.5 µM for the second.

Same assay, conditions: Homo sapiens, HCT-116, phospho-serine 2056 DNA-PK, bleomycin-treated HCT116 cells; class symbols A-D; read-out: IC50 pDNA-PK

`CSc1ccc(C(O)c2cc(-c3ncnc4cc(N5CCOCC5)ccc34)c(F)cc2Cl)nn1` (stereo not shown) [Example 108, [2-Chloro-4-fluoro-5-(7-morpholin-4-yl-quinazolin-4-yl)-phenyl]-(6-methyl-sulfanylpyridazin-3-yl)methanol] and `OC(c1cccnc1)c1cc(-c2ncnc3cc(N4CCOCC4)ccc23)c(F)cc1F` (stereo not shown) [Example 217, [2,4-Difluoro-5-(7-morpholin-4-yl-quinazolin-4-yl)-phenyl]pyridin-3-yl-methanol] cannot be ordered by IC50: under 0.5 µM for the first, under 0.5 µM for the second.

First: OC(c1cccc(-c2ncnc3cc(N4CCOCC4)ccc23)c1)(c1nccs1)C(F)(F)F (stereo not shown) [Example 159, 2,2,2-Trifluoro-1-[3-(7-morpholin-4-yl-quinazolin-4-yl)-phenyl]-1-thiazol-2-ylethanol]
Second: OCCNc1nccnc1C(O)c1ccc(F)c(-c2ncnc3cc(N4CCOCC4)ccc23)c1 (stereo not shown) [Example 106, 2-(3-{[4-fluoro-3-(7-morpholin-4-yl-quinazolin-4-yl)-phenyl]hydroxy-methyl}pyrazin-2-yl-amino)ethanol]
The IC50 of the first is higher: 10 to 30 µM for the first, 5 to 10 µM for the second.

`OCc1csc(C(O)c2cc(-c3ncnc4cc(N5CCOCC5)ncc34)c(F)cc2Cl)n1` (stereo not shown) [Example 141, [2-Chloro-4-fluoro-5-(7-morpholin-4-yl-pyrido[4,3-d}-pyrimidin-4-yl)-phenyl]-(4-hydroxymethyl-thiazol-2-yl)-methanol] and `OCc1csc(C(O)c2cc(-c3ncnc4cc(N5C6CCC5COC6)ccc34)c(F)cc2Cl)n1` (stereo not shown) [Example 187, {2-Chloro-4-fluoro-5-[7-(3-oxa-8-aza-bicyclo[3.2.1]oct-8-yl)quinazolin-4-yl]-phenyl}-(4-hydroxy-methylthiazol-2-yl)-methanol] fall in the same range of IC50: 10 to 30 µM for the first, 10 to 30 µM for the second.

Same assay, conditions: Homo sapiens, HCT-116, phospho-serine 2056 DNA-PK, bleomycin-treated HCT116 cells; read-out: IC50 pDNA-PK

First: OC(c1ccc(F)c(-c2ncnc3cc(N4CCOCC4)ccc23)c1)c1nncc2sccc12 (stereo not shown) [Example 333, [4-Fluoro-3-(7-morpholin-4-yl-quinazolin-4-yl)-phenyl]thieno[2,3-d}-pyridazin-4-yl-methanol]
Second: Nc1cncc(C(O)c2ccc(F)c(-c3ncnc4cc(N5CCOCC5)ccc34)c2)n1 (stereo not shown) [Example 302, (6-Amino-pyrazin-2-yl)-[4-fluoro-3-(7-morpholin-4-yl-quinazolin-4-yl)-phenyl]methanol]
The IC50 of the first is lower: under 0.5 µM for the first, 5 to 10 µM for the second. The first is the more potent here.

First: [2H]c1c(N2CCOCC2)cc2ncnc(-c3cc(C(O)c4nccnc4C)ccc3F)c2c1[2H] (stereo not shown) [Example 226, [3-(5,6-Dideuterio-7-morpholino-quinazolin-4-yl)-4-fluorophenyl]-(3-methylpyrazin-2-yl)-methanol]
Second: NC(=O)C(c1cc(-c2ncnc3cc(N4CCOCC4)ccc23)c(F)cc1Cl)c1ncccc1Cl (stereo not shown) [Example 289, 2-[2-Chloro-4-fluoro-5-(7-morpholin-4-yl-quinazolin-4-yl)-phenyl]-2-(3-chloro-pyridin-2-yl)-acetamide]
The IC50 of the first is lower: under 0.5 µM for the first, 0.5 to 5 µM for the second. The first is the more potent here.

First: NC(=O)C(c1cc(-c2ncnc3cc(N4CCOCC4)ccc23)ccc1Cl)c1nccnc1Cl (stereo not shown) [Example 315, 2-[2-Chloro-5-(7-morpholin-4-yl-quinazolin-4-yl)-phenyl]-2-(3-chloro-pyrazin-2-yl)-acetamide]
Second: NC(=O)C(c1cc(-c2ncnc3cc(N4CCOCC4)ccc23)c(F)cc1F)c1nccn2cccc12 (stereo not shown) [Example 348, 2-[2,4-Difluoro-5-(7-morpholin-4-yl-quinazolin-4-yl)-phenyl]-2-pyrrolo-[1,2-a]pyrazin-1-yl-acetamide]
The IC50 of the first is higher: 10 to 30 µM for the first, 0.5 to 5 µM for the second. The second is the more potent here.

In the case of `OC(c1cc(-c2ncnc3cc(N4CCOCC4)ccc23)c(F)cc1F)c1nncc2ccsc12` (stereo not shown) [Example 342, [2,4-Difluoro-5-(7-morpholin-4-yl-quinazolin-4-yl)-phenyl]thieno[2,3-d}-pyridazin-7-yl-methanol], the IC50 is reported as under 0.5 µM.

Same assay, conditions: cellular DNA-PK phosphorylation at serine 2056, HCT116 cells; read-out: IC50 pDNA-PK

`OC(c1cc(-c2ncnc3cc(N4CCOCC4)ccc23)c(F)cc1F)c1ncnc2ccoc12` (stereo not shown) [Example 445, [2,4-Difluoro-5-(7-morpholin-4-yl-quinazolin-4-yl)-phenyl]furo[3,2-d}-pyrimidin-4-yl-methanol] and `OC(c1cc(-c2ncnc3cc(N4CCOCC4)ccc23)c(F)cc1Cl)c1ncnc2ccoc12` (stereo not shown) [Example 452, [2-Chloro-4-fluoro-5-(7-morpholin-4-yl-quinazolin-4-yl)-phenyl]furo[3,2-d}-pyrimidin-4-yl-methanol] cannot be ordered by IC50: under 0.5 µM for the first, under 0.5 µM for the second.

Compared with `Cc1cccnc1C(O)c1ccc(F)c(-c2ncnc3cc(N4CCOCC4)ccc23)c1` (stereo not shown) [Example 472, [4-Fluoro-3-(7-morpholin-4-yl-quinazolin-4-yl)-phenyl]-(3-methyl-pyridin-2-yl)methanol], `COc1cncnc1C(O)c1cc(-c2ncnc3cc(N4CCOCC4)ccc23)ccc1Cl` (stereo not shown) [Example 413, [2-Chloro-5-(7-morpholin-4-yl-quinazolin-4-yl)-phenyl]-(5-methoxy-pyrimidin-4-yl)-methanol] is higher in IC50: under 0.5 µM for the first, 0.5 to 5 µM for the second.

`Cn1cnc2ncnc(C(O)c3cc(-c4ncnc5cc(N6CCOCC6)ccc45)c(F)cc3Cl)c21` (stereo not shown) [Example 423, [2-Chloro-4-fluoro-5-(7-morpholin-4-yl-quinazolin-4-yl)-phenyl]-(7-methyl-7H-purin-6-yl)-methanol] was tested, and the IC50 was 5 to 10 µM.

Same assay, conditions: phospho-serine 2056 DNA-PK, bleomycin-treated HCT116 cells; read-out: IC50 pDNA-PK

First: [2H]C1([2H])OC([2H])([2H])C([2H])([2H])N(c2ccc3c(-c4cc([C@H](O)c5nccnc5C)ccc4F)ncnc3c2)C1([2H])[2H] [Example 243, (S)-[4-Fluoro-3-[7-(2,2,3,3,5,5,6,6-octadeuterio-morpholin-4-yl)quinazolin-4-yl]phenyl]-(3-methylpyrazin-2-yl)methanol]
Second: Cn1c(C(O)c2cc(-c3ncnc4cc(N5CCOCC5)ccc34)ccc2Cl)cccc1=O (stereo not shown) [Example 364, 6-{[2-Chloro-5-(7-morpholin-4-yl-quinazolin-4-yl)-phenyl]hydroxy-methyl}-1-methyl-1H-pyridin-2-one (Ena 1)]
The IC50 of the first is higher: 0.5 to 5 µM for the first, under 0.5 µM for the second. The second is the more potent here.
